What was measured:
[1] = man, after oral dosing; cited from earlier work
[2] = PK experiments in rats: plasma compound (I) after oral dosing of prodrug; details: for Plasma concentrations / exposure of compound (I) after oral dosing of prodrug (in words): Wistar rats, doses equal to 287 μg/kg of compound (I); for Observed metabolite, in vivo PK study after oral dosing (rats): plasma
Protocol: For all the experiments, blood samples of approximately 0.68 mL were drawn from the tail or sublingual vein and put into K3EDTA tubes that had been pre-cooled and prepared with stabilizing solution consisting of 80 μL ascorbic acid and 40 μL 100 mM D-saccharic acid 1,4 lactone in water. The tubes were inverted gently 6-8 times to ensure thorough mixing and then placed in wet ice. The collecting tube was placed in wet ice for up to 30 minutes until centrifugation. Once removed from the wet ice the centrifugation was initiated immediately. Immediately after end of centrifugation the samples were returned to wet ice. Three sub-samples of 130 μL plasma were transferred to each of three appropriately labelled cryo tubes containing 6.5 μL pre-cooled formic acid (20%) (the tubes were pre-spiked and stored refrigerated prior to use). The tube lid was immediately replaced, and the plasma solution was thoroughly mixed by inverting gently 6-8 times. The samples were stored frozen at nominally −70° C. within 60 minutes after sampling. Centrifugation conditions at 3000 G for 10 minutes at 4° C. Plasma was placed on water-ice following collection. Final storage at approximately −70° C.
Plasma samples were analyzed by solid phase extraction or direct protein precipitation followed by UPLC-MS/MS. MS detection using electrospray in the positive ion mode with monitoring of specific mass-to-charge transitions for compound (I) using internal standards for correcting the response. The concentration-time data was analyzed, using standard software using appropriate noncompartmental techniques to obtain estimates of the derived PK parameters.
Mass spectrometer (LC-MS/MS) Waters Acquity-Sciex API 5000. Analytical column Waters BEH UPLC Phenyl 100×2.1 mm column, 1.7 μm particle size. Mobile phase A: 20 mM ammonium formate (aq)+0.5% formic acid. Mobile phase B: Acetonitrile. Gradient run from 95/5% to 2/98 in 6.1 minutes. Flow rate 0.5 mL/min. MRM monitoring (multiple reaction monitoring) of test item and the added analytical standards
Han Wistar rats were supplied by Charles River Laboratories, Sulzfeld, Germany. An artificial, automatically controlled, light and dark cycle of 12 hours was maintained. The rats received a standard laboratory diet from Brogaarden (Altromin 1324 pellets). The rats had unrestricted access to the diet.
Mass spectrometer (LC-MS/MS) Waters Acquity-Sciex API 5000. Analytical column Waters BEH UPLC Phenyl 100×2.1 mm column, 1.7 μm particle size. Mobile phase A: 20 mM ammonium formate (aq)+0.5% formic acid. Mobile phase B: Acetonitrile. Gradient run from 95/5% to 2/98 in 6.1 minutes. Flow rate 0.5 mL/min. MRM monitoring of test item and the added analytical standards.
Han Wistar rats were supplied by Charles River Laboratories, UK. An artificial, automatically controlled, light and dark cycle of 12 hours was maintained. The rats received a standard laboratory diet (Teklad 2014C Diet.). The rats had unrestricted access to the diet.
Mass spectrometer (LC-MS/MS) Waters Acquity—Waters Xevo TQ-S. Analytical column Acquity BEH C18 100×2.1 mm, 1.7 μm. Mobile phase A: 20 mM NH4—Formate+0.2% formic acid. Mobile phase B: Acetonitrile+0.2% formic acid. Gradient run from 95/5% to 5/95% in 11.0 minutes. Flow rate 0.3 mL/min. MRM monitoring of test item and the added analytical standards.
Han Wistar rats were supplied by Envigo, UK.

[3] = Conversion of compounds in human plasma (incubation, LC-MS/MS); assay type: in vitro ADME; details: for Observed metabolite, incubation in human plasma: 1 μM test compound, 37° C., 0 to 6 hours
Protocol: Frozen human plasma was thawed and then centrifuged at 3200×g for 5 minutes to remove debris. The pH value of the supernatant was then measured and adjusted to 7.4±0.1 by adding 1% phosphoric acid or 1 N sodium hydroxide. 2 μL of dosing solution (50 μM for test compounds and 100 μM for positive control (propantheline bromide)) was mixed with 98 μL of blank plasma to achieve 1 μM test compound and 2 μM positive control of final concentration. The mixture was incubated, and samples were withdrawn from the incubations at the pre-determined time points of 0, 0.5, 1, 2, 4 and 6 hours (in duplicate) at 37° C. in water bath. At each corresponding time point 10 μL inhibitor and 20 μL ascorbic acid and 2 μL formic acid (20%) are added, and then added 400 μL of “stop solution” (200 ng/mL tolbutamide plus 200 ng/mL labetalol in 50% ACN/MeOH) to precipitate protein. The substance was mixed thoroughly and thereafter Centrifugated at 4,000 rpm for 20 minutes. Then an aliquot of supernatant (50 μL) was transferred from each well to a sample plate and mixed with 100 μL ultrapure water. The plate was shaked at 800 rpm for about 10 minutes before submitting to LC-MS/MS analysis.
Mass spectrometer (LC-MS/MS) Shimadzu LC 20-AD Shimadzu UHPLC API 4000. Analytical column ACQUITY UPLC® BEH Phenyl 1.7 μm 2.1×50 mm. Mobile phase A: 0.1% Formic Acid in Water. Mobile phase B: 0.1% Formic Acid in Acetonitrile. […] Flow rate 0.7 mL/min.

human 5-HT2B receptor [4] = biological target: T1, human 5-HT2B receptor (Homo sapiens, UniProt P41595); assay: 5-HT2B radioligand binding assay ([125I](±)DOI, CHO cell membranes); details: read-out: 5-HT2B % at single concentration (binding affinity, % inhibition of control specific binding per footnote)
T1 construct: host or cells: CHO cells
Protocol: Evaluation of the affinity of compounds for the human 5-HT2B receptor was determined in a radioligand binding assay at Eurofins/Cerep (France). Membrane homogenates prepared from CHO cells expressing the human 5HT2B receptor were incubated for 60 minutes at room temperature with 0.2 nM [125I](±)DOI (1-(4-iodo-2, 5-dimethoxyphenyl)propan-2-amine) in the absence or presence of the test compound in a buffer containing 50 mM Tris-HCl (pH 7.4), 5 mM MgCl2, 10 μM pargyline and 0.1% ascorbic acid. Nonspecific binding is determined in the presence of 1 μM (±)DOI. Following incubation, the samples were filtered rapidly under vacuum through glass fiber filters (GF/B, Packard) presoaked with 0.3% polyethyleneimine (PEI) and rinsed several times with ice-cold 50 mM Tris-HCl using a 96-sample cell harvester (Unifilter, Packard). The filters were dried and counted for radioactivity in a scintillation counter (Topcount, Packard) using a scintillation cocktail (Microscint 0, Packard). The results are expressed as a percent inhibition of the control radioligand specific binding. The standard reference compound was (±)DOI, which was tested in each experiment at several concentrations to obtain a competition curve from which its IC50 is calculated.

human 5-HT2B receptor [5] = biological target: T1, human 5-HT2B receptor; assay: 5-HT2B agonist activity assay (IP1 production, HTRF, transfected CHO cells); assay type: cell-based
Protocol: Evaluation of the agonist activity of compounds (I), (Ia) and (Ib) at the human 5-HT2B receptor was performed by Eurofins/Cerep (France) measuring the compound effects on inositol monophosphate (IP1) production using the HTRF detection method. Briefly, the human 5-HT2B receptor was expressed in transfected CHO cells. The cells were suspended in a buffer containing 10 mM Hepes/NaOH (pH 7.4), 4.2 mM KCl, 146 mM NaCl, 1 mM CaCl2, 0.5 mM MgCl2, 5.5 mM glucose and 50 mM LiCl, then distributed in microplates at a density of 4100 cells/well and incubated for 30 min at 37° C. in the presence of buffer (basal control), test compound or reference agonist. For stimulated control measurement, separate assay wells contained 1 μM 5-HT. Following incubation, the cells were lysed and the fluorescence acceptor (fluorophen D2-labeled IP1) and fluorescence donor (anti-IP1 antibody labeled with europium cryptate) were added. After 60 minutes at room temperature, the fluorescence transfer was measured at lambda(Ex) 337 nm and lambda (Em) 620 and 665 nm using a microplate reader (Rubystar, BMG). The IP1 concentration was determined by dividing the signal measured at 665 nm by that measured at 620 nm (ratio). The results were expressed as a percent of the control response to 1 μM 5-HT. […]

T1 sequence (P41595 whole entry): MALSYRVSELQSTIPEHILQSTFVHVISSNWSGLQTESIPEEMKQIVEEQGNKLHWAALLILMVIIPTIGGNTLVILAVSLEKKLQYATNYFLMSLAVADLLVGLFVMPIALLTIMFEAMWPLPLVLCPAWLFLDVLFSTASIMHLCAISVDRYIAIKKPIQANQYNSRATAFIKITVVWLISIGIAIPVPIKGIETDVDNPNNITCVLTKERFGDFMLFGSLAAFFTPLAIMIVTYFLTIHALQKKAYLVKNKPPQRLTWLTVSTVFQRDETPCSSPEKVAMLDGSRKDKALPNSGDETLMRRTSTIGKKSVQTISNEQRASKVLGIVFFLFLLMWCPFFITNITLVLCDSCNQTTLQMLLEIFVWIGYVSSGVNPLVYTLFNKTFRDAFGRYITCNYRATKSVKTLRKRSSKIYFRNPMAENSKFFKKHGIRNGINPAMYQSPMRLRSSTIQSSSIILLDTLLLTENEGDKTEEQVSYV

SMILES | Plasma concentrations / exposure of compound (I) after oral dosing of prodrug (in words) [2] | inhibition at 10 µM (human 5-HT2B receptor [4]) [%] | Observed metabolite, in vivo PK study after oral dosing (rats) [2] | also measured
CCCc1cc2c(s1)CN[C@@H]1CCc3cc(OC(C)=O)c(OC(C)=O)cc3[C@@H]21 [Adrogolide] |  |  |  | Oral bioavailability [1]: ~4%
CCCN1CCC[C@@H]2Cc3c(ccc(OC(=O)C(C)(C)C)c3OC(=O)C(C)(C)C)C[C@H]21 [(Ic), reference compound] | extremely low |  |  | 
CCCN1CCC[C@@H]2Cc3c(ccc(O)c3O)C[C@H]21 [Compound (I), (4aR,10aR)-1-Propyl-1,2,3,4,4a,5,10,10a-octahydro-benzo[g]quinoline-6,7-diol, reference compound] |  |  |  | Half-life in the plasma assay (in words) ([3]; human plasma incubation): short half-life
CCCN1CCC[C@@H]2Cc3c(ccc(OC(=O)NC)c3OC(=O)NC)C[C@H]21 [Compound (1), (4aR,10aR)-1-propyl-1,2,3,4,4a,5,10,10a-octahydrobenzo[g]quinoline-6,7-diyl bis(methylcarbamate)] |  | 3 | Compound (I) | 
CCCN1CCC[C@@H]2Cc3c(ccc(OC(=O)N(C)C)c3OC(=O)N(C)C)C[C@H]21 [Compound (3), (4aR,10aR)-1-propyl-1,2,3,4,4a,5,10,10a-octahydrobenzo[g]quinoline-6,7-diyl bis(dimethylcarbamate)] |  | 4 | Compound (I) | Observed metabolite, incubation in human plasma [3]: Compound (I)
CCCN1CCC[C@@H]2Cc3c(ccc(OC(=O)NCC)c3OC(=O)NCC)C[C@H]21 [Compound (2), (4aR,10aR)-1-propyl-1,2,3,4,4a,5,10,10a-octahydrobenzo[g]quinoline-6,7-diyl bis(ethylcarbamate)] |  | 3 | Compound (I) | Observed metabolite, incubation in human plasma [3]: Compound (I)
CCCN1CCC[C@@H]2CC3=C(CCCC3=O)C[C@H]21 [Compound (Ia), reference compound] | early and high peak concentrations of compound (I) |  |  | 5-HT2B agonist effect at single concentration (human 5-HT2B receptor [5]; @30 μM, percent of the control response to 1 μM 5-HT): 58%
CCCN1CCC[C@@H]2Cc3c(ccc4c3OCO4)C[C@H]21 [Compound (Ib), (6aR,10aR)-7-propyl-6,6a,7,8,9,10,10a,11-octahydro-[1,3]dioxolo[4′,5′:5,6]benzo[1,2-g]quinoline, reference compound] | early and high peak concentrations of compound (I) |  |  | 5-HT2B receptor agonism (in words) (human 5-HT2B receptor [5]; c.f. example 2 and Table 3): agonist of the 5-HT2B receptor
